Like-named read-outs stand apart in the source and are kept apart here.
Assays:
[1] = target: GSK3α (GST-full length GSK3α) (Homo sapiens (Human), UniProt P49840); experiment: GSK3α TR-FRET kinase assay; format: biochemical
Summary of the method: (§1)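 IC50s came from the normalized 665/615 TR-FRET ratio after Tb-anti-pSer641 antibody and streptavidin-d2 detection of phosphorylated biotin-glycogen synthase peptide (200 nM). ATP was 4 μM for GSK3α, 2 μM for GSK3b, or 1 mM; 1 nM enzyme, 100 min, ambient, pH 7.5, after 30-min compound preincubation.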

[2] = target: GSK3b (GST-full length GSK3b) (Homo sapiens (Human), UniProt P49841); experiment: GSK3b TR-FRET kinase assay; format: biochemical
GSK3b (GST-full length GSK3b), sequence (P49841 whole entry): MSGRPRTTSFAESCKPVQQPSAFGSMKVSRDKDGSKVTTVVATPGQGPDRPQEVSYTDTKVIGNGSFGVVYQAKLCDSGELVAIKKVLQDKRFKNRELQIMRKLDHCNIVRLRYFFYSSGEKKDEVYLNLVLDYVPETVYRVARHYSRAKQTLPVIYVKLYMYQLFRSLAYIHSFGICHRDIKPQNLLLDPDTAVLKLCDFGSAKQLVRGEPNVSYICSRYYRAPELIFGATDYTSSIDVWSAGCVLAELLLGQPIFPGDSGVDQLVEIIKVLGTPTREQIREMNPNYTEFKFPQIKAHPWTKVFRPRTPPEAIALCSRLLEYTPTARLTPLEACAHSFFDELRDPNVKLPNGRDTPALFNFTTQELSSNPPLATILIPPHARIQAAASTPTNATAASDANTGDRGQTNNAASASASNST
Summary of the method: as §1

[3] = 1 nM GSK3α, 4 μM ATP, 30 minute preincubation, geometric mean, read-out: GSK3-A TR-FRET BIOCHEMICAL (TR-FRET), GMean, IC50
[4] = read-out: GSK3-A (TR-FRET 1 mM ATP), GMean, IC50, 1 mM ATP, geometric mean
[5] = 1 nM GSK3b, 2 μM ATP, 30 minute preincubation, geometric mean, read-out: GSK3-B TR-FRET BIOCHEMICAL (TR-FRET), GMean, IC50
[6] = read-out: GSK3-B (TR-FRET 1 mM ATP), GMean, IC50, 1 mM ATP, geometric mean
[7] = 1 nM GSK3α, 4 μM ATP, 30 minute preincubation, Table 16, read-out: GSK3-A TR-FRET BIOCHEMICAL (TR-FRET)
[8] = 1 nM GSK3b, 2 μM ATP, 30 minute preincubation, Table 16, read-out: GSK3-B TR-FRET BIOCHEMICAL (TR-FRET)

GSK3α (GST-full length GSK3α), sequence (P49840 whole entry): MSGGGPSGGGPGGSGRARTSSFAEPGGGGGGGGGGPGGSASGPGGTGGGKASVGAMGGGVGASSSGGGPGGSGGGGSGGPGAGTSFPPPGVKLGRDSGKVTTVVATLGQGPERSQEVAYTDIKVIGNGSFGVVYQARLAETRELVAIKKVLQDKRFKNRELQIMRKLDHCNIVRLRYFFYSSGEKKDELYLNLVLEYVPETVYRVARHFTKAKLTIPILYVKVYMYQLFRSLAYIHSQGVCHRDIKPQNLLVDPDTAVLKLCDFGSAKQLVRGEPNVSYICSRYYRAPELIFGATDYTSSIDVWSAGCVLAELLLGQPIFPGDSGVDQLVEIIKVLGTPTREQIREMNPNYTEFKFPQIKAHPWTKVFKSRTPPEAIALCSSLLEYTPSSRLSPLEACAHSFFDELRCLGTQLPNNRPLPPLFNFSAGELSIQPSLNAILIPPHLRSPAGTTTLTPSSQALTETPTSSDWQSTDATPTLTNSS

Structure (SMILES) | IC50 [1, 3] [nM] | IC50 [2, 5] [nM] | also measured
CCC1(c2cccc(C3CN(C(C)=O)C3)c2)C2=C(CC(C)(C)CC2=O)Nc2n[nH]cc21 (stereo not shown) [Compound 948779] | – | – | IC50 [1, 7]: 1000 to 5000 nM; IC50 [2, 8]: > 5000 nM
CCC1(c2cccc(OCC(F)F)c2)C2=C(CC(C)(C)CC2=O)Nc2n[nH]cc21 (stereo not shown) [Compound 948793] | – | – | IC50 [1, 7]: ≤ 100 nM; IC50 [1, 4]: 100 to 1000 nM; IC50 [2, 8]: ≤ 100 nM; IC50 [2, 6]: > 5000 nM
CC[C@@]1(c2cccc(-c3ccnc4c(F)cccc34)c2)C2=C(CC(C)(C)NC2=O)Nc2n[nH]cc21 [Compound 948813] | 1000 to 5000 | > 5000 | –
CC[C@@]1(c2cccc(-c3cnn(C)c3C#N)c2)C2=C(CC(C)(C)NC2=O)Nc2n[nH]cc21 [Compound 948814] | > 5000 | > 5000 | –
CC[C@@]1(c2cccc(-c3ccnc4c3cnn4C)c2)C2=C(CC(C)(C)NC2=O)Nc2n[nH]cc21 [Compound 948817] | > 5000 | > 5000 | –
CC[C@@]1(c2cccc(-c3ccnc4cnccc34)c2)C2=C(CC(C)(C)NC2=O)Nc2n[nH]cc21 [Compound 948819] | 1000 to 5000 | > 5000 | –
CCC1(c2cccc(-c3cnn(C)c3C#N)c2)C2=C(CC(C)(C)NC2=O)Nc2n[nH]cc21 (stereo not shown) [Compound 948827] | ≤ 100 | 100 to 1000 | –
CC[C@@]1(c2cccc(-c3c(C)cncc3C)c2)C2=C(CC(C)(C)NC2=O)Nc2n[nH]cc21 [Compound 948829] | > 5000 | > 5000 | –
CCC1(c2cccc(-c3ccnc(C)c3)c2)C2=C(CC(C)(C)N(C)C2=O)Nc2n[nH]cc21 (stereo not shown) [Compound 949004] | ≤ 100 | 100 to 1000 | –
CCC1(c2cccc(-c3cn(C)nc3C)c2)C2=C(CC(C)(C)N(C)C2=O)Nc2n[nH]cc21 (stereo not shown) [Compound 949005] | ≤ 100 | ≤ 100 | IC50 [1, 4]: ≤ 100 nM; IC50 [2, 6]: 1000 to 5000 nM
CCC1(c2cccc(-c3cn(C)nc3C)c2)C2=C(CC(C)(C)N(C)C2=O)Nc2n[nH]cc21 (stereo not shown) [Compound 949008] | 1000 to 5000 | > 5000 | –
CCC1(c2cccc(-c3ccnc(C)c3)c2)C2=C(CC(C)(C)N(C)C2=O)Nc2n[nH]cc21 (stereo not shown) [Compound 949009] | > 5000 | > 5000 | –
CCC1(c2cccc(C(F)(F)F)c2)C2=C(CCN(c3cccc(C)c3)C2=O)Nc2n[nH]cc21 (stereo not shown) [Compound 949040] | ≤ 100 | 100 to 1000 | –
CC[C@]1(c2cccc(C(F)(F)F)c2)C2=C(CCN(c3cccc(C)c3)C2=O)Nc2n[nH]cc21 [Compound 949041] | 1000 to 5000 | > 5000 | –
CCC1(c2cccc(C3CCCC3)c2)C2=C(CC(C)(C)CC2=O)Nc2n[nH]cc21 (stereo not shown) [Compound 949082] | – | – | IC50 ([1]; 1 nM GSK3α, 4 μM ATP, 30 minute preincubation, Table 16, read-out: GSK3-A TR-FRET BIOCHEMICAL (TR-FRET), IC50): ≤ 100 nM; IC50 ([2]; 1 nM GSK3b, 2 μM ATP, 30 minute preincubation, Table 16, read-out: GSK3-B TR-FRET BIOCHEMICAL (TR-FRET), IC50): ≤ 100 nM
CC[C@]1(c2cccc(-c3cnn(CCOC)c3)c2)C2=C(CC(C)(C)NC2=O)Nc2n[nH]cc21 [Compound 949105] | ≤ 100 | 100 to 1000 | –
CCC1(c2cccc(-c3cn(C)nc3C(C)C)c2)C2=C(CC(C)(C)NC2=O)Nc2n[nH]cc21 (stereo not shown) [Compound 949111] | 100 to 1000 | 1000 to 5000 | –
CC[C@]1(c2cccc(OCC(F)F)c2)C2=C(CC(C)(C)CC2=O)Nc2n[nH]cc21 [Compound 949113] | – | – | IC50 [1, 7]: 1000 to 5000 nM; IC50 [2, 8]: > 5000 nM
CCC1(c2cccc(-c3cnn(CCOC)c3)c2)C2=C(CC(C)(C)NC2=O)Nc2n[nH]cc21 (stereo not shown) [Compound 949114] | 1000 to 5000 | > 5000 | –
CCC1(c2cccc(-c3cc(OC)nc4ccccc34)c2)C2=C(CC(C)(C)NC2=O)Nc2n[nH]cc21 (stereo not shown) [Compound 949116] | > 5000 | > 5000 | –
CC[C@@]1(c2cccc(C(F)(F)F)c2)C2=C(CCN(c3ccc(C)cc3)C2=O)Nc2n[nH]cc21 [Compound 949118] | ≤ 100 | 100 to 1000 | –
CC[C@]1(c2cccc(C(F)(F)F)c2)C2=C(CCN(c3ccc(C)cc3)C2=O)Nc2n[nH]cc21 [Compound 949119] | 1000 to 5000 | > 5000 | –

Second part, led by results:

IC50 [1, 3] [nM] | IC50 [2, 5] [nM] | Structure (SMILES) | also measured
≤ 100 | ≤ 100 | CC[C@]1(c2cccc(S(=O)(=O)C3CC3)c2)C2=C(CC(C)(C)NC2=O)Nc2[nH]nc(C(F)(F)F)c21 [Compound 948771] | IC50 [1, 4]: ≤ 100 nM; IC50 [2, 6]: 100 to 1000 nM
1000 to 5000 | > 5000 | CCC1(c2cccc(-c3ccnc(C)c3)c2)C2=C(CC(C)(C)NC2=O)Nc2n[nH]c(C(F)(F)F)c21 (stereo not shown) [Compound 948773] | –
≤ 100 | ≤ 100 | CC[C@@]1(c2cccc(-c3ccnc(C)c3)c2)C2=C(CC(C)(C)NC2=O)Nc2n[nH]c(C(F)(F)F)c21 [Compound 948774] | –
≤ 100 | ≤ 100 | CC[C@@]1(c2cccc(-c3cnn4c3CCCC4)c2)C2=C(CC(C)(C)NC2=O)Nc2[nH]nc(C(F)(F)F)c21 [Compound 948775] | IC50 ([1]; GSK3-A (TR-FRET 1 mM ATP), GMean, IC50, 1 mM ATP, geometric mean): ≤ 100 nM; IC50 ([2]; GSK3-B (TR-FRET 1 mM ATP), GMean, IC50, 1 mM ATP, geometric mean): 100 to 1000 nM
100 to 1000 | 100 to 1000 | CCC1(c2cccc(S(=O)(=O)C3CC3)c2)C2=C(CC(C)(C)NC2=O)Nc2n[nH]c(C(F)(F)F)c21 (stereo not shown) [Compound 948776] | –
≤ 100 | ≤ 100 | CC[C@@]1(c2cccc(-c3ccncc3F)c2)C2=C(CC(C)(C)NC2=O)Nc2[nH]nc(C(F)(F)F)c21 [Compound 948777] | –
≤ 100 | 100 to 1000 | CC[C@]1(c2cccc(-c3cnn(C)c3C(F)(F)F)c2)C2=C(CC(C)(C)NC2=O)Nc2n[nH]cc21 [Compound 948815] | IC50 [1, 4]: 100 to 1000 nM; IC50 [2, 6]: > 5000 nM
> 5000 | > 5000 | CC[C@@]1(c2cccc(-c3cnn(C(F)F)c3)c2)C2=C(CC(C)(C)NC2=O)Nc2n[nH]cc21 [Compound 948816] | –
> 5000 | > 5000 | CC[C@@]1(c2cccc(-c3c(C)c(C)nn3C)c2)C2=C(CC(C)(C)NC2=O)Nc2n[nH]cc21 [Compound 948818] | –
1000 to 5000 | > 5000 | CCC1(c2cccc(-c3cnn(C)c3C(F)(F)F)c2)C2=C(CC(C)(C)NC2=O)Nc2n[nH]cc21 (stereo not shown) [Compound 948826] | –
≤ 100 | ≤ 100 | CCC1(c2cccc(-c3ccnc(C)c3)c2)C2=C(CC(C)(C)NC2=O)Nc2n[nH]c(Cl)c21 (stereo not shown) [Compound 948998] | IC50 [1, 4]: 100 to 1000 nM; IC50 [2, 6]: 1000 to 5000 nM
≤ 100 | 100 to 1000 | CCC1(c2cccc(-c3ccncc3F)c2)C2=C(CC(C)(C)NC2=O)Nc2n[nH]c(F)c21 (stereo not shown) [Compound 948999] | –
100 to 1000 | 100 to 1000 | CC[C@]1(c2cccc(N3CCOCC3)c2)C2=C(CC(C)(C)NC2=O)Nc2n[nH]c(C(F)(F)F)c21 [Compound 949000] | –
100 to 1000 | 100 to 1000 | CCC1(c2cccc(-c3ccnc(C)c3)c2)C2=C(CC(C)(C)NC2=O)Nc2n[nH]c(F)c21 (stereo not shown) [Compound 949001] | –
1000 to 5000 | > 5000 | CC[C@]1(c2cccc(-c3cnn(C)c3)c2)C2=C(CC(C)(C)NC2=O)Nc2n[nH]c(F)c21 [Compound 949002] | –
100 to 1000 | 100 to 1000 | CCC1(c2cccc(-c3cncn3C)c2)C2=C(CC(C)(C)NC2=O)Nc2n[nH]c(C(F)(F)F)c21 (stereo not shown) [Compound 949003] | –
≤ 100 | 100 to 1000 | CC[C@]1(c2cccc(C(F)F)c2)C2=C(CC(C)(C)NC2=O)Nc2n[nH]cc21 [Compound 949006] | IC50 [1, 4]: 100 to 1000 nM; IC50 [2, 6]: > 5000 nM
1000 to 5000 | > 5000 | CC[C@@]1(c2cccc(C(F)F)c2)C2=C(CC(C)(C)NC2=O)Nc2n[nH]cc21 [Compound 949007] | –
≤ 100 | ≤ 100 | CCC1(c2cccc(-c3cncn3C)c2)C2=C(CC(C)(C)NC2=O)Nc2n[nH]c(C(F)(F)F)c21 (stereo not shown) [Compound 949010] | IC50 [1, 4]: ≤ 100 nM; IC50 [2, 6]: ≤ 100 nM
≤ 100 | 100 to 1000 | CCC1(c2cccc(-c3cnn(C)c3)c2)C2=C(CC(C)(C)NC2=O)Nc2n[nH]c(F)c21 (stereo not shown) [Compound 949011] | –
≤ 100 | 100 to 1000 | CC[C@@]1(c2cccc(-c3ccnc(C)c3)c2)C2=C(CC(C)(C)NC2=O)Nc2n[nH]c(F)c21 [Compound 949012] | –
≤ 100 | ≤ 100 | CC[C@@]1(c2cccc(N3CCOCC3)c2)C2=C(CC(C)(C)NC2=O)Nc2n[nH]c(C(F)(F)F)c21 [Compound 949013] | –
> 5000 | > 5000 | CC[C@@]1(c2cccc(-c3cnn(C(C)(C)C)c3)c2)C2=C(CC(C)(C)NC2=O)Nc2n[nH]cc21 [Compound 949107] | –
≤ 100 | 100 to 1000 | CC[C@]1(c2cccc(-c3cc(OC)ncc3F)c2)C2=C(CC(C)(C)NC2=O)Nc2n[nH]cc21 [Compound 949109] | –
≤ 100 | 100 to 1000 | CC[C@]1(c2cccc(-c3cnn(C(C)(C)C)c3)c2)C2=C(CC(C)(C)NC2=O)Nc2n[nH]cc21 [Compound 949112] | IC50 [1, 4]: > 5000 nM; IC50 [2, 6]: > 5000 nM

From patent publication US20250313563A1, “GLYCOGEN SYNTHASE KINASE 3 INHIBITORS AND USES THEREOF” (The Broad Institute, Inc., priority 2022, published 2025)
